In patent US8822168B2, “Assays for detecting small nuclear ribonucleoprotein particle assembly and survival of motor neurons activity” (The Trustees of the University of Pennsylvania, priority 2005, dated 2014):
Entries after “also recorded” stand apart in the source; their conditions may differ.

How the values were obtained:
[1] = system: SMN complex; assay: high-throughput 384-well SMN complex activity / snRNP assembly assay; type: biochemical; conditions: test compound added to labeled RNA, cell extract and ATP; identified inhibitors, FIG. 10
From the text: The present assay comprises labeling an RNA, in the case of an assay to measure Sm core activity, the RNA is snRNA. The RNA is preferably labeled with a non-radioactive tag, such as biotin-UTP. […] The labeled RNA binds the plate through the interaction between biotin and avidin/streptavidin. The RNA binding proteins present in the cell extract bind their RNA target at sequence specific sites, forming a ribonucleoprotein complex in the multi-well plate substrate. The ribonucleoprotein complex is captured on the plate and the plate is washed one or more times. An anti RNA binding protein antibody is then added to the plate. The plate is again washed one or more times and an labeled antibody, such as an HRP labeled antibody, is added to the multi-well plate substrate. The plate is washed one or more times, and HRP substrate is added. Chemiluminescence generated by HRP is detected using a plate reader.
Five microliters of test compound dissolved in DMSO were added to each well of the plate. Five microliters of HeLa whole cell extract containing 8 μg of total protein was added to each well. The plate was centrifuged (5 minutes at 1000 rpm), and the assembly reactions were allowed to proceed for 1 hour at room temperature. The reaction mixtures were aspirated and 20 μl/well of Y12 antibody (diluted 1:1000 in RSB-500 (10 mM Tris/HCl, pH 7.5, 500 mM NaCl, 2.5 mM MgCl2, and 0.1% Nonidet P-40 (NP-40)) containing 1 mg/ml BSA, 2 mg/ml heparin, and 1× Complete EDTA-free Protease Inhibitor Cocktail) was added. The plate was centrifuged for 5 minutes at 1000 rpm, and incubated for 1 hour at room temperature.
The plate was washed 10× with RSB-500 using an automated plate washer, followed by the addition of 20 ml/well of horseradish peroxidase-conjugated AffiniPure goat anti-mouse IgG+IgM (diluted 1:10,000 in RSB-500 containing 1 mg/ml BSA) for 1 hour at room temperature. The plate was centrifuged for 5 minutes at 1000 rpm. The plate was then washed 10× using an automated washer and 20 μl of SuperSignal ELISA Femto Maximum Sensitivity enhanced chemiluminescence substrate working solution was added into each well. The plate was then centrifuged for 5 minutes at 1000 rpm. The luminescence signal was measured using a plate Reader.
The assay of the present invention can also be used to determine the dose response activity of a compound on an RNA binding protein-RNA complex.

[2] = system: Sm core assembly on U4 snRNA in HeLa cytoplasmic extracts; assay: magnetic beads assay for in vitro assembly of snRNPs (Sm core assembly); type: biochemical; conditions: cell extracts, AMP-PNP in place of ATP, FIG. 3A
Experimental: For quantitative in vitro assembly assays on magnetic beads, cytoplasmic extracts were prepared and used for assembly on biotin-labeled snRNAs using the standard reconstitution conditions in 96-well plates. Following the reactions, Y12 antibodies immobilized onto the magnetizable Dynabeads Protein A (Dynal Biotech ASA, Oslo, Norway) in 100 μl of RSB-500 buffer (10 mM Tris/HCl pH 7.5, 500 mM NaCl, 2.5 mM MgCl2) containing 2 mg/ml heparin, 0.1% NP-40, and 0.2 U/μl RNasin Plus RNase inhibitor (Promega, Madison, Wis.) were added to each well. Immunoprecipitations in the 96-well plates were carried out with gentle mixing at 750 rpm in a Thermomixer (Eppendorf, Germany) at 30° C. for 1 hour. The plates were subsequently transferred to a Kingfisher 96 magnetic particle processor (Thermo Labsystems, Vantaa, Finland) for automatic washing of the Dynabeads in each well with wash buffer (RSB-500, 0.1% NP-40) 5 times. […] The plates were transferred to a Wallac Victor2 multi-label plate reader (Perkin-Elmer, Wellesley, Mass.) for luminescence measurements at 495 nm. The resulting data were analyzed with Microsoft Excel.
To facilitate the study of the snRNP assembly process, an assay that allows a quantitative measurement of Sm core formation was developed (FIG. 2). […] This step also serves to amplify the signals for the luminescence measurement of the HRP activity on an automatic plate reader. […]

| Structure (SMILES) | formation of an RNA binding protein-RNA complex [1] | Sm core assembly (snRNP complex formation) [2] |
| --- | --- | --- |
| O=C1C(SCCO)=C(SCCO)C(=O)c2ccccc21 [2,3-bis[(2-Hydroxyehtyl)thio]-1,4-naphthoquinone] | inhibits the formation of an RNA binding protein-RNA complex |  |
| Nc1ncnc2c1ncn2[C@@H]1O[C@H](COP(=O)(O)OP(=O)(O)NP(=O)(O)O)[C@@H](O)[C@H]1O [AMP-PNP, adenosine 5′-(β,γ-imido)triphosphate] |  | does not permit the formation; also recorded: does not occur |
| CC1(C)CCC2=C(O1)c1ccccc1C(=O)C2=O [beta-lapachone] | inhibits the formation of an RNA binding protein-RNA complex |  |
| Oc1c(Cl)cc(Cl)cc1Sc1cc(Cl)cc(Cl)c1O [bithionol] | inhibits the formation of an RNA binding protein-RNA complex |  |
| Oc1c(Cl)cc(Cl)c(Cl)c1Cc1c(O)c(Cl)cc(Cl)c1Cl [hexachlorophene] | inhibits the formation of an RNA binding protein-RNA complex |  |
